From ChEMBL document CHEMBL5233261, “Recent accomplishments on the synthetic/biological facets of pharmacologically active 1H-1,2,3-triazoles” (Eur J Med Chem, 2021) come the findings set out here.

Common to all, as to type: functional
The test system of assay [1] is Staphylococcus aureus. The assay can be described thus: Antibacterial activity against Staphylococcus aureus ATCC 6535 strain assessed as bacterial growth inhibition incubated for 24 hrs.
In a further assay the test system is Enterococcus faecalis. The assay can be described thus: Antibacterial activity against Enterococcus faecalis ATCC 29212 strain assessed as bacterial growth inhibition incubated for 24 hrs.
The next assay concerns Proteus vulgaris. The assay can be described thus: Antibacterial activity against Proteus vulgaris ATCC 7829 strain assessed as bacterial growth inhibition.
Another assay concerns Escherichia coli. The assay can be described thus: Antibacterial activity against Escherichia coli ATCC 853 strain assessed as bacterial growth inhibition.
For the next assay, the system named is Candida albicans. The assay can be described thus: Antifungal activity against Candida albicans NRRL Y-477 strain assessed as […] growth inhibition.
The test system of assay [2] is Staphylococcus aureus. The assay can be described thus: Antibacterial activity against Staphylococcus aureus ATCC 6538P strain assessed as bacterial growth inhibition.
The subject of a further assay is Bacillus cereus. The assay can be described thus: Antibacterial activity against Bacillus cereus ATCC 11778 strain assessed as bacterial growth inhibition.
The test system of another assay is Aspergillus fumigatus. The assay can be described thus: Antifungal activity against Aspergillus fumigatus ATCC 13073 strain assessed as […] growth inhibition.
Another assay deals with Pseudomonas aeruginosa. The assay can be described thus: Antibacterial activity against Pseudomonas aeruginosa ATCC 27853 strain assessed as bacterial growth inhibition incubated for 24 hrs.

Converted amounts (≈) assume the structure as drawn.

A word on the MIC: it is the least concentration at which growth counts as inhibited.

Consider `CCOP(=O)(CCCn1cc(Cn2cnc3ccccc3c2=O)nn1)OCC`, for which, in the assay with Staphylococcus aureus [1], the MIC is 0.625 µg/mL (≈ 1.54 µM).
As for `CCOP(=O)(CCn1cc(Cn2cnc3ccccc3c2=O)nn1)OCC`, the minimum inhibitory concentration (MIC) with Enterococcus faecalis came out at 0.625 µg/mL (≈ 1.6 µM).
As for `COc1ccccc1-n1cc(COc2ccc(-c3nc(-c4ccccc4)c(-c4ccccc4)n3Cc3cn(-c4ccccc4OC)nn3)cc2)nn1`, the minimal inhibitory concentration (MIC) in the assay with Proteus vulgaris, in the assay on Escherichia coli, with Candida albicans, in the assay with Staphylococcus aureus [2], in the assay with Bacillus cereus and in the assay on Aspergillus fumigatus was 13.8 µM (≈ 9.46 µg/mL) in each case.
Regarding `CCOP(=O)(CCCCn1cc(Cn2cnc3ccccc3c2=O)nn1)OCC`, the MIC in the assay with Pseudomonas aeruginosa is 0.625 µg/mL (≈ 1.49 µM).
